In PMC10222858 (Marine Drugs, 2023):
Where a SMILES comes first, the peptide text is derived from it.

What was measured:
rα3β4 nAChRs = rα3β4 nAChRs (Rattus norvegicus, UniProt P04757+P12392); experiment: cell-based; format: cell-based
rα6/α3β4 nAChRs = rα6/α3β4 nAChRs (Rattus norvegicus, UniProt P04757+P12392+P43143); experiment: cell-based; format: cell-based
Sequence of rα6/α3β4 nAChRs (P04757 whole entry, looked up): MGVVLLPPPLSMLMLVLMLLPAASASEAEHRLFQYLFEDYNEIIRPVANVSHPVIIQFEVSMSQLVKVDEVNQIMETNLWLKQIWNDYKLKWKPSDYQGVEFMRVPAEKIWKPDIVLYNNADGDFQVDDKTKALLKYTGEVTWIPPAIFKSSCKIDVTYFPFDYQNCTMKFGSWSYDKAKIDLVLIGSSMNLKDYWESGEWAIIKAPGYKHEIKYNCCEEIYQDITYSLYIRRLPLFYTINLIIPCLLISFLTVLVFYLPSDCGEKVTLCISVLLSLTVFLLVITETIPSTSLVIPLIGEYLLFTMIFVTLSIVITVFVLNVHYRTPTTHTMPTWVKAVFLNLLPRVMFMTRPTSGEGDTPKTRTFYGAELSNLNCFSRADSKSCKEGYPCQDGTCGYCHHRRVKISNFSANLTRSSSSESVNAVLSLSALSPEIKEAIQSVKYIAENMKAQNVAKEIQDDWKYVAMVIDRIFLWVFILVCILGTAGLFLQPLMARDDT
Sequence of rα6/α3β4 nAChRs (P12392 whole entry, looked up): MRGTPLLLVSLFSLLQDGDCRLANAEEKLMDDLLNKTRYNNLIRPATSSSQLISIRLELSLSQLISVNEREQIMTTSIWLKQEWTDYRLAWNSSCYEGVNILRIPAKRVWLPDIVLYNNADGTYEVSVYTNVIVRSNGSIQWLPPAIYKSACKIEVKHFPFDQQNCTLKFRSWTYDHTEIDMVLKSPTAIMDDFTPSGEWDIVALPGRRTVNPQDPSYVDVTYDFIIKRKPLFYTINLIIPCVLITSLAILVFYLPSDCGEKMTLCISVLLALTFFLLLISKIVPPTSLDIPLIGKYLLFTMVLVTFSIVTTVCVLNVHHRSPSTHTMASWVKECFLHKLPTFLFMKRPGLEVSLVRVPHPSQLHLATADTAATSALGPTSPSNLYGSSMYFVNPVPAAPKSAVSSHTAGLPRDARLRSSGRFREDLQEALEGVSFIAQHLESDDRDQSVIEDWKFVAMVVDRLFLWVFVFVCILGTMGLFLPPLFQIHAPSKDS
Sequence of rα6/α3β4 nAChRs (P43143 whole entry, looked up): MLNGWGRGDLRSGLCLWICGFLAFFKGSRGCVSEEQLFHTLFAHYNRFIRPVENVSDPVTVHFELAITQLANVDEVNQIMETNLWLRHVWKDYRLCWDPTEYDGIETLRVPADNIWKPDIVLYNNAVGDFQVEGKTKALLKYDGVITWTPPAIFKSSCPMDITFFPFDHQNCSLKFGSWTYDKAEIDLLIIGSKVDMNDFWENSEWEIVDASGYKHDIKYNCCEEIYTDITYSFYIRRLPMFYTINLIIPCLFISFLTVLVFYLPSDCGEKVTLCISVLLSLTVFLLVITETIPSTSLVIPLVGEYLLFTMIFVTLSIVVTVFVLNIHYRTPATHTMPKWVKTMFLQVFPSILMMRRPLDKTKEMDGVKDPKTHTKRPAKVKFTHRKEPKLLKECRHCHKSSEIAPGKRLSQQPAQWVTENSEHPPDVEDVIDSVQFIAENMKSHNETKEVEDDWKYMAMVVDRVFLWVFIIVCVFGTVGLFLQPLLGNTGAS

Sequence of rα3β4 nAChRs (P04757 26-499 limits assumed): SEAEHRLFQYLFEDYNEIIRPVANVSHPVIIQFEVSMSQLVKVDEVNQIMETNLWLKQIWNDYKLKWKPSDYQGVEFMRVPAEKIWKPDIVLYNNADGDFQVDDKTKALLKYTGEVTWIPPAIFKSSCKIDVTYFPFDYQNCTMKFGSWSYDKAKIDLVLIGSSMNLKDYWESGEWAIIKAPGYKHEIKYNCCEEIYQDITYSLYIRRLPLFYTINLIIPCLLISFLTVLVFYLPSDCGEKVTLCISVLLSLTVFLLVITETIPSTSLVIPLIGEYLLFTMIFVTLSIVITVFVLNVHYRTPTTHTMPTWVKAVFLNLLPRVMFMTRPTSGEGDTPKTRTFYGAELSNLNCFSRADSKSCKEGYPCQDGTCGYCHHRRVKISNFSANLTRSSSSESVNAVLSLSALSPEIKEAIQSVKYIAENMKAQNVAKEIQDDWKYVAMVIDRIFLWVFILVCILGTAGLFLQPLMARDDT
Sequence of rα3β4 nAChRs (P12392 21-495 limits assumed): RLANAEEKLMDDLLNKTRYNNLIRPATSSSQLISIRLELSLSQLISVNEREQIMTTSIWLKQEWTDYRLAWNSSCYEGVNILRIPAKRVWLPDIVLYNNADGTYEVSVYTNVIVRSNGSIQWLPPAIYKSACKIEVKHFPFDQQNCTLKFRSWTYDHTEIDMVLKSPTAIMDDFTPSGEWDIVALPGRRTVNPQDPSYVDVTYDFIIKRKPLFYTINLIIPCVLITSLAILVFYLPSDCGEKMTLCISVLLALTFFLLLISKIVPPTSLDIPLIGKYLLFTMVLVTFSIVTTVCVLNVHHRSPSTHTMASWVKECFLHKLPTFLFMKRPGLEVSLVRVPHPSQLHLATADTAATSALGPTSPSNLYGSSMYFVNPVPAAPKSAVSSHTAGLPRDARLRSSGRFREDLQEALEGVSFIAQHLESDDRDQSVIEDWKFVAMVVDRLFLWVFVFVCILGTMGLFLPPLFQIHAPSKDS

SMILES	IC50 (rα3β4 nAChRs)	blocking percentage of rα3β4 nAChRs (rα3β4 nAChRs)	IC50 (rα6/α3β4 nAChRs)	inhibition of rα6/α3β4 nAChRs in words (rα6/α3β4 nAChRs)
CC[C@H](C)[C@@H]1NC(=O)[C@@H]2CCCN2C(=O)[C@H](CO)NC(=O)[C@H](CCSC)NC(=O)[C@H](C)NC(=O)[C@H](CO)NC(=O)[C@H](C)NC(=O)[C@@H]2CSSC[C@H](NC(=O)CN)C(=O)N[C@@H](CSSC[C@@H](C(N)=O)NC1=O)C(=O)N[C@@H](CO)C(=O)N[C@@H](Cc1c[nH]cn1)C(=O)N1CCC[C@H]1C(=O)N[C@@H](C(C)C)C(=O)N2 [[+9A]TxID] (HELM PEPTIDE1{G.C.C.S.H.P.V.C.A.S.A.M.S.P.I.C.[am]}$PEPTIDE1,PEPTIDE1,2:R3-8:R3|PEPTIDE1,PEPTIDE1,3:R3-16:R3$$$V2.0)	> 10000 nM	less than fifty percent	> 10000 nM	no obvious inhibition
CC[C@H](C)[C@@H]1NC(=O)[C@@H]2CCCN2C(=O)[C@H](CO)NC(=O)[C@H](CCSC)NC(=O)[C@H](C)NC(=O)[C@H](C)NC(=O)[C@H](CO)NC(=O)[C@@H]2CSSC[C@H](NC(=O)CN)C(=O)N[C@@H](CSSC[C@@H](C(N)=O)NC1=O)C(=O)N[C@@H](CO)C(=O)N[C@@H](Cc1c[nH]cn1)C(=O)N1CCC[C@H]1C(=O)N[C@@H](C(C)C)C(=O)N2 [[+10A]TxID] (HELM PEPTIDE1{G.C.C.S.H.P.V.C.S.A.A.M.S.P.I.C.[am]}$PEPTIDE1,PEPTIDE1,2:R3-8:R3|PEPTIDE1,PEPTIDE1,3:R3-16:R3$$$V2.0)	> 10000 nM		1130 nM	
CC[C@H](C)[C@@H]1NC(=O)[C@@H]2CCCN2C(=O)[C@H](CO)NC(=O)[C@H](C)NC(=O)[C@H](CCSC)NC(=O)[C@H](C)NC(=O)[C@H](CO)NC(=O)[C@@H]2CSSC[C@H](NC(=O)CN)C(=O)N[C@@H](CSSC[C@@H](C(N)=O)NC1=O)C(=O)N[C@@H](CO)C(=O)N[C@@H](Cc1c[nH]cn1)C(=O)N1CCC[C@H]1C(=O)N[C@@H](C(C)C)C(=O)N2 [[+12A]TxID] (HELM PEPTIDE1{G.C.C.S.H.P.V.C.S.A.M.A.S.P.I.C.[am]}$PEPTIDE1,PEPTIDE1,2:R3-8:R3|PEPTIDE1,PEPTIDE1,3:R3-16:R3$$$V2.0)	49 nM		34 nM	
CC[C@H](C)[C@@H]1NC(=O)[C@@H]2CCCN2C(=O)[C@H](C)NC(=O)[C@H](CO)NC(=O)[C@H](CCSC)NC(=O)[C@H](C)NC(=O)[C@H](CO)NC(=O)[C@@H]2CSSC[C@H](NC(=O)CN)C(=O)N[C@@H](CSSC[C@@H](C(N)=O)NC1=O)C(=O)N[C@@H](CO)C(=O)N[C@@H](Cc1c[nH]cn1)C(=O)N1CCC[C@H]1C(=O)N[C@@H](C(C)C)C(=O)N2 [[+13A]TxID] (HELM PEPTIDE1{G.C.C.S.H.P.V.C.S.A.M.S.A.P.I.C.[am]}$PEPTIDE1,PEPTIDE1,2:R3-8:R3|PEPTIDE1,PEPTIDE1,3:R3-16:R3$$$V2.0)	9.9 nM		64 nM	
CC[C@H](C)[C@@H]1NC(=O)[C@H](C)NC(=O)[C@@H]2CCCN2C(=O)[C@H](CO)NC(=O)[C@H](CCSC)NC(=O)[C@H](C)NC(=O)[C@H](CO)NC(=O)[C@@H]2CSSC[C@H](NC(=O)CN)C(=O)N[C@@H](CSSC[C@@H](C(N)=O)NC1=O)C(=O)N[C@@H](CO)C(=O)N[C@@H](Cc1c[nH]cn1)C(=O)N1CCC[C@H]1C(=O)N[C@@H](C(C)C)C(=O)N2 [[+14A]TxID] (HELM PEPTIDE1{G.C.C.S.H.P.V.C.S.A.M.S.P.A.I.C.[am]}$PEPTIDE1,PEPTIDE1,2:R3-8:R3|PEPTIDE1,PEPTIDE1,3:R3-16:R3$$$V2.0)	37 nM		368 nM	
CC[C@H](C)[C@@H]1NC(=O)[C@@H]2CCCN2C(=O)[C@H](CO)NC(=O)[C@H](CCSC)NC(=O)[C@H](C)NC(=O)[C@H](CO)NC(=O)[C@@H]2CSSC[C@H](NC(=O)CN)C(=O)N[C@@H](CSSC[C@@H](C(N)=O)NC(=O)[C@H](C)NC1=O)C(=O)N[C@@H](CO)C(=O)N[C@@H](Cc1c[nH]cn1)C(=O)N1CCC[C@H]1C(=O)N[C@@H](C(C)C)C(=O)N2 [[+15A]TxID] (HELM PEPTIDE1{G.C.C.S.H.P.V.C.S.A.M.S.P.I.A.C.[am]}$PEPTIDE1,PEPTIDE1,2:R3-8:R3|PEPTIDE1,PEPTIDE1,3:R3-16:R3$$$V2.0)	3 nM		37 nM	
